Active and inactive are the calls of the source. The calls are words filed in the database; no cut-off is given here.
Key:
NCI-H522 = test: Antitumor activity against human NCI-H522 cells xenografted in mouse assessed as tumor cell killing at 2.35 mg/kg, ip qd for 4 days by MTT assay; format: functional, organism-based; design: dose 2.35 mg/kg
CAKI-1 = test: Cytotoxicity against human Caki1 cells assessed as cell growth at 8 nM by sulforhodamine B assay relative to control; format: functional; details: read-out: Activity

Row | SMILES | Activity (NCI-H522) | growth at 0.008 µM (CAKI-1)
1 | C/C=C1\NC(=O)[C@H](Cc2ccccc2)NC(=O)[C@@H](C(C)C)NC(=O)[C@@H]([C@@H](C)CC)NC(=O)[C@H](NC(=O)[C@H](NC(=O)[C@H](CCCNCc2ccc(N3CCOCC3)cc2)NC(=O)[C@H]2CCCN2C(=O)[C@H](NC(=O)[C@@H](NC(=O)[C@@H](NC(=O)[C@H](NC(=O)CCCC(C)C)C(C)C)[C@@H](C)O)C(C)C)C(C)C)[C@@H](C)CC)[C@@H](C)OC(=O)[C@H](C(C)C)NC1=O | inactive | –
2 | C/C=C1\NC(=O)[C@H](Cc2ccccc2)NC(=O)[C@@H](C(C)C)NC(=O)[C@@H]([C@@H](C)CC)NC(=O)[C@H](NC(=O)[C@H](NC(=O)[C@H](CCCNCc2ccc(F)c(C)c2)NC(=O)[C@H]2CCCN2C(=O)[C@H](NC(=O)[C@@H](NC(=O)[C@@H](NC(=O)[C@H](NC(=O)CCCC(C)C)C(C)C)[C@@H](C)O)C(C)C)C(C)C)[C@@H](C)CC)[C@@H](C)OC(=O)[C@H](C(C)C)NC1=O | – | 130%
